Results on one substance are retold here after patent publication US12338270B2, “Pharmaceutical composition comprising polypeptide” (D&D Pharmatech Inc., priority 2018, dated 2025).

Non-standard residues stand in square brackets, D forms with d. No end group written: not given here. tri‑branched mPEG‑MAL 50 kDa = tri-branched maleimide-activated monomethoxy PEG, 50 kDa; Aib = CC(C)(N)C(=O)O

Holding throughout (type): in vivo
Test [1] relates to obesity animal model (C57BL/6 mice, 60% high-fat diet). Put plainly: final body weight with different dose and dosing frequency in obesity model (Experimental Example 5). Particulars: FIG. 4. The protocol:
First, an obesity animal model was prepared by feeding a 60% high-fat diet to normal C57BL/6 mice (approximately 6 weeks old) for approximately 24 weeks, and increasing the body weights of the mice to approximately 50 g in average. After 2 weeks, the final body weights of the mice were measured.

For test [2], the system named is animal model of non-alcoholic fatty liver diseases (C57BL/6 mice, high-trans-fat diet). Put plainly: liver biopsy and NAFLD activity score, high-trans-fat diet model (Experimental Example 9). Particulars: 20 nmol/kg s.c. once every three days for 4 weeks. As for the experimental part: After the experiment was conducted in the same manner as in Experimental Example 8, a liver biopsy was conducted and an NAFLD activity score (NAS) was measured to check a preventing or therapeutic effect on non-alcoholic fatty liver diseases. An experiment was performed in the same manner as in Experimental Example 8, after the 4-week administration of the conjugate of Example 2, the mouse livers were extracted, embedded in paraffin, and then microtomed into thin slices. Thereafter, a hematoxylin & eosin (H&E) stain and an oil-red-O stain were conducted.

In the next test the test system is db/db mice. Put plainly: blood glucose and body weight in db/db mice (Experimental Example 4). The protocol: First of all, the conjugate of Example 2 was administered to 7-week-old db/db mice by subcutaneous injection at a dose of 20 nmol/kg once every other day for 12 days. For 12 days when the drug was administered, the changes in blood glucose and body weights were measured once every other day after the drug administration.

The mark [3] stands for this setting: 20 nmol/kg s.c. once every other day for 12 days.
Where [4] appears, read: day 0, 20 nmol/kg s.c. once every other day.
Setting [5] is: day 2, 20 nmol/kg s.c. once every other day.
Setting [6] is: day 4, 20 nmol/kg s.c. once every other day.
The mark [7] stands for this setting: day 6, 20 nmol/kg s.c. once every other day.
[8] abbreviates: day 8, 20 nmol/kg s.c. once every other day.
Where [9] appears, read: day 10, 20 nmol/kg s.c. once every other day.
Where [10] appears, read: day 12, 20 nmol/kg s.c. once every other day.

As for “Example 2: Conjugate of polypeptide H(Aib)QGTFTSDYSKYLDEQAAKEFVQWLMNTC (SEQ ID NO. 2) and tri-branched mPEG-MAL (MW: 50 kDa) (H[Aib]QGTFTSDYSKYLDEQAAKEFVQWLMNTC(tri‑branched mPEG‑MAL 50 kDa); lactam (positions not given here); not fully specified (bridges); printed as H(Aib)QGTFTSDYSKYLDEQAAKEFVQWLMNTC)”, the “effect on body weight loss” value in test [1] (20 nmol/kg s.c. once every other day for 2 weeks) is listed as “significant effect on the body weight loss”. For the same substance, the “effect on body weight loss with extended interval” value in test [1] (40 nmol/kg s.c. once a week for 2 weeks) is recorded as “the same effect on the body weight loss”. Also, the “dose dependence of body weight loss” value in test [1] (20 vs 40 nmol/kg s.c. once every other day for 2 weeks) was “dose-dependent response”. The “hepatic steatosis vs non-treated group and positive control” value in test [2] (FIG. 13) is listed as “significantly reduced”. In addition, the “NAFLD activity score (NAS) vs non-treated group and positive control” value in test [2] (FIG. 14) is on record as “significantly reduced”. Further, the “body weight vs non-treated group” value with db/db mice (setting [3]) was “body weight loss was observed”. For the same substance, the “level of blood glucose vs non-treated group” value in the test on db/db mice (setting [3]) is reported as “a level of blood glucose was lowered”. Besides, the Blood glucose with db/db mice (setting [4]) is 100%; with db/db mice (setting [5]) it was 88%; in the test on db/db mice (setting [6]), 34%; in the test with db/db mice (setting [7]) it was 25%; in the test on db/db mice (setting [8]) it was 17%; in the test on db/db mice (setting [9]), 17%. This substance also had a Blood glucose in the test on db/db mice (setting [10]) of 16%. The Body weight with db/db mice (setting [4]) is recorded as 100%; in the test on db/db mice (setting [5]) it was 96%; in the test on db/db mice (setting [6]) it was 91%; with db/db mice (setting [7]) it was 86%; with db/db mice (setting [8]), 84%; in the test on db/db mice (setting [9]) it was 79%. The same substance gave a Body weight with db/db mice (setting [10]) of 76%.
